# Data from patent US5840758A, “Oxime derivatives of fenamates as inhibitors of prostaglandin biosynthesis” (Abbott Laboratories, priority 1996, dated 1998).
# Key:
# [1] = system: PGHS-1; settings: in words, from literature; cited from earlier work
# [2] = system: PGHS-2; settings: in words, from literature; cited from earlier work
# [3] = molecular target: T1, human recombinant PGHS-2 (Homo sapiens, UniProt P35354); test: Inhibition of prostaglandin biosynthesis (PGE2 by EIA), recombinant human PGHS-2 enzyme assay; format: biochemical; settings: 60 min preincubation, 10 μM arachidonic acid
# T1 construct: made in house; host or cells: baculovirus/Sf9 insect cells (microsomes)
# T1 sequence (P35354 18-604): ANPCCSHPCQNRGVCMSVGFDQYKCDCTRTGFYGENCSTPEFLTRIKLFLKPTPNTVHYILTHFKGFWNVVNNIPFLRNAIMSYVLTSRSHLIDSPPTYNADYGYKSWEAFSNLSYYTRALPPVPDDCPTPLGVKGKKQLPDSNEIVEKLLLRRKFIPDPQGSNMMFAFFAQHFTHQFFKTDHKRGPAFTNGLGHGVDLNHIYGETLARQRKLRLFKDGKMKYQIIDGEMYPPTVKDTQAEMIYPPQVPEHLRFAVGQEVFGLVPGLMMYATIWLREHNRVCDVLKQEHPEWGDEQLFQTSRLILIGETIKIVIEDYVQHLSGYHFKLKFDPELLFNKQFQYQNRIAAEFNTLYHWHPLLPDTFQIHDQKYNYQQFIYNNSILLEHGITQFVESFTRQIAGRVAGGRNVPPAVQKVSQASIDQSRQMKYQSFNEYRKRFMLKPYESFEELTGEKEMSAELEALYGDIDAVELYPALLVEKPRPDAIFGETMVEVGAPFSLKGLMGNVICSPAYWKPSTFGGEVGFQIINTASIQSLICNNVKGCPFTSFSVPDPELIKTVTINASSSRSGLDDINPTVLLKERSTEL
# Protocol: (§1) Inhibition of prostaglandin biosynthesis was evaluated in recombinant human PGHS-1 and PGHS-2 enzyme assays. Representative compounds dissolved in DMSO (3.3% v/v) were preincubated with microsomes from recombinant human PGHS-1 or PGHS-2 expressed in the baculovirus/Sf9 cell system (Gierse, J. K., Hauser, S. D., Creely, D. P., Koboldt, C., Rangwala, S., H., Isakson, P. C., and Seibert, K. Expression and selective inhibition of the constituitive and inducible forms of cyclooxygenase Biochem J. 1995, 305: 479.), together with the cofactors phenol (2 mM) and hematin (1 μM) for 60 minutes prior to the addition of 10 μM arachidonic acid. The reaction was allowed to run for 2.5 minutes at room temperature prior to quenching with HCl and neutralization with NaOH. PGE2 production in the presence and absence of the drug was determined by EIA analysis. The EIA was conducted in 96 well microtiter plates (Nunc Roskilde, Denmark) and optical density measured using a microplate reader (Vmax, Molecular Devices Corp., Menlo Park, Calif.). EIA reagents for prostaglandin determination were purchased from Perseptive Diagnostics, Cambridge, Mass. PGE2 levels were measured against standards prepared in the same milieu. The immunoassays were conducted as recommended by the manufacturer.
# [4] = molecular target: T2, human recombinant PGHS-1 (Homo sapiens, UniProt P23219); test: Inhibition of prostaglandin biosynthesis (PGE2 by EIA), recombinant human PGHS-1 enzyme assay; format: biochemical; settings: 60 min preincubation, 10 μM arachidonic acid
# T2 construct: made in house; host or cells: baculovirus/Sf9 insect cells (microsomes)
# T2 sequence (P23219 24-599): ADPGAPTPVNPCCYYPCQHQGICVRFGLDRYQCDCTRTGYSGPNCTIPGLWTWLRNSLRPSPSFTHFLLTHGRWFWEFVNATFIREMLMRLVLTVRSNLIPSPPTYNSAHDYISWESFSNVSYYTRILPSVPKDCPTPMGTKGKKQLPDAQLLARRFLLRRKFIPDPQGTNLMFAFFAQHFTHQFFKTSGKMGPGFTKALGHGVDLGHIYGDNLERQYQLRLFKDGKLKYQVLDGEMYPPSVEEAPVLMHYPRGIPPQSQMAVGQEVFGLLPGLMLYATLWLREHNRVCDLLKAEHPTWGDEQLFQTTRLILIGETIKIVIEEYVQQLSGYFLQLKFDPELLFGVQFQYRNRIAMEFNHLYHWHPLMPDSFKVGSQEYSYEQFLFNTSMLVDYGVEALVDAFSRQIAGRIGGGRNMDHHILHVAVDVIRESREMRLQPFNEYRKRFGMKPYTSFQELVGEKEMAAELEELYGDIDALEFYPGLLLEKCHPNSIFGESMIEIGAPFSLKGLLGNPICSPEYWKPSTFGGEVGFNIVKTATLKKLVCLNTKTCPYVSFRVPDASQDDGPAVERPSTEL
# Protocol: as §1
IC50 [3],IC50 [4],SMILES,inhibition of PGHS-1 [1],inhibition of PGHS-2 [2]
,,CC(C)Cc1ccc(C(C)C(=O)O)cc1 (centres unmarked) [ibuprofen],inhibit both isozymes,inhibit both isozymes
,,COc1ccc2cc([C@H](C)C(=O)O)ccc2c1 [naproxen],inhibit both isozymes,inhibit both isozymes
,,Cc1ccc(Cl)c(Nc2ccccc2C(=O)O)c1Cl [Meclofenamic acid],inhibit both PGHS-1 and PGHS-2,inhibit both PGHS-1 and PGHS-2
22 nM,850 nM,"Cc1ccc(Cl)c(Nc2ccccc2C=NOCC(=O)O)c1Cl [Example 1, 2-[(2,6-dichloro-3-methylphenyl)amino]benzaldehyde-O-carboxymethyl oxime]",,
